Calls of active or inactive are those of the source. No cut-off for these calls is given here.
Legend:
KBv200 [1] = experiment: Reversal of vinorelbine resistance in human KBv200 cells assessed as reduction in cell viability incubated for 72 hrs in presence of vinorelbine (reference value: 224 to 228.30 nM); type: functional, cell-based; conditions: KBv200, 72 h, read-out: IC50
KBv200 [2] = experiment: Reversal of paclitaxel resistance in human KBv200 cells assessed as reduction in cell viability incubated for 72 hrs in presence of paclitaxel (reference value: 392.9+/-196.5 nM); type: functional, cell-based; conditions: KBv200, 72 h
[3] = Toxicity in Balb/cA nude mouse xenografted with human KBv200 cells assessed as changes in body weight at 25 mg/kg, ip qd administered for 13 days in presence of vinorelbine; type: organism-based; conditions: in vivo, 312 h, time 13 day
OVCAR-8 = experiment: Reversal of vinorelbine resistance in human OVCAR-8 cells assessed as reduction in cell viability incubated for 72 hrs in presence of vinorelbine (reference value: 16.2+/-4.7 nM); type: functional, cell-based; conditions: OVCAR-8, 72 h
[4] = Toxicity in Balb/cA nude mouse xenografted with human KBv200 cells assessed as changes in body weight at 50 mg/kg, ip qd administered for 13 days; type: organism-based; conditions: in vivo, 312 h, time 13 day
[5] = Half life in CD-1 mouse at 3 mg/kg, iv; type: ADME, organism-based; conditions: in vivo
[6] = Toxicity in Balb/cA nude mouse xenografted with human KBv200 cells assessed as mortality at 25 mg/kg, ip qd administered for 13 days in presence of vinorelbine; type: organism-based; conditions: in vivo, 312 h, time 13 day
[7] = Tmax in CD-1 mouse at 25 mg/kg, ip; type: ADME, organism-based; conditions: in vivo
[8] = AUClast in CD-1 mouse at 25 mg/kg, ip; type: ADME, organism-based; design: dose 25 mg/kg, route ip; conditions: in vivo
[9] = AUClast in CD-1 mouse at 30 mg/kg, po; type: ADME, organism-based; design: dose 30 mg/kg, route po; conditions: in vivo
KBv200 [10] = experiment: Antitumor activity against human KBv200 cells xenografted in Balb/cA nude mouse assessed as tumor growth inhibition at 50 mg/kg, ip qd administered for 13 days in presence of vinorelbine; type: functional; conditions: KBv200, 312 h, time 13 day
KBv200 [11] = experiment: Downregulation of P-gp mRNA expression level in human KBV200 cells by qRT-PCR analysis; type: functional, cell-based
KBv200 [12] = experiment: Antitumor activity against human KBv200 cells xenografted in Balb/cA nude mouse assessed as mean tumor volume at 50 mg/kg, ip administered as single dose and measured on day 0 in presence of vinorelbine; type: functional
KBv200 [13] = experiment: Antitumor activity against human KBv200 cells xenografted in Balb/cA nude mouse assessed as tumor growth inhibition at 50 mg/kg, ip qd administered for 13 days; type: functional; conditions: KBv200, 312 h, time 13 day
NCI/ADR-RES = experiment: Reversal of vinorelbine resistance in human NCI/ADR-RES cells assessed as reduction in cell viability incubated for 72 hrs in presence of vinorelbine (reference value: 6125.7+/-3267.7 nM); type: functional, cell-based
[14] = Cytotoxicity against human HEK293T cells assessed as reduction in cell viability incubated for 48 hrs by CCK-8 assay; type: toxicity, cell-based, HEK-293T
[15] = Oral bioavailability in CD-1 mouse at 30 mg/kg; type: ADME, organism-based; conditions: in vivo
[16] = AUCinf in CD-1 mouse at 25 mg/kg, ip; type: ADME, organism-based; design: dose 25 mg/kg, route ip; conditions: in vivo
[17] = Cmax in CD-1 mouse at 25 mg/kg, ip; type: ADME, organism-based; design: dose 25 mg/kg, route ip; conditions: in vivo
KBv200 [18] = experiment: Antitumor activity against human KBv200 cells xenografted in Balb/cA nude mouse assessed as mean tumor volume at 25 mg/kg, ip qd administered for 13 days in presence of vinorelbine; type: functional; conditions: time 13 day
KBv200 [19] = experiment: Antitumor activity against human KBv200 cells xenografted in Balb/cA nude mouse assessed as mean tumor volume at 50 mg/kg, ip administered as single dose and measured on day 0; type: functional
KBv200 [20] = experiment: Antitumor activity against human KBv200 cells xenografted in Balb/cA nude mouse assessed as mean tumor volume at 50 mg/kg, ip qd administered for 13 days; type: functional; conditions: time 13 day
KBv200 [21] = experiment: Reversal fold, ratio of vinorelbine IC50 for cytotoxicity against human KBv200 cells over test compound IC50 for reversal of vinorelbine resistance in human KBv200 cells; type: functional
K562 = experiment: Reversal of vinorelbine resistance in human K562 cells assessed as reduction in cell viability incubated for 72 hrs in presence of vinorelbine (reference value: 5.9+/-0.2 nM); type: functional, cell-based; conditions: K562, 72 h
[22] = Clearance in CD-1 mouse at 3 mg/kg, iv; type: ADME, organism-based; conditions: in vivo
KBv200 [23] = experiment: Antitumor activity against human KBv200 cells xenografted in Balb/cA nude mouse assessed as tumor growth inhibition at 25 mg/kg, ip qd administered for 13 days in presence of vinorelbine; type: functional; conditions: KBv200, 312 h, time 13 day
[24] = Cmax in CD-1 mouse at 30 mg/kg, po; type: ADME, organism-based; design: dose 30 mg/kg, route po; conditions: in vivo
[25] = AUClast in CD-1 mouse at 3 mg/kg, iv; type: ADME, organism-based; design: dose 3 mg/kg, route iv; conditions: in vivo
KBv200 [26] = experiment: Antitumor activity against human KBv200 cells xenografted in Balb/cA nude mouse assessed as T/C ratio at 25 mg/kg, ip qd administered for 13 days in presence of vinorelbine; type: functional; conditions: time 13 day
[27] = Tmax in CD-1 mouse at 30 mg/kg, po; type: ADME, organism-based; conditions: in vivo
KBv200 [28] = experiment: Antitumor activity against human KBv200 cells xenografted in Balb/cA nude mouse assessed as T/C ratio at 50 mg/kg, ip qd administered for 13 days; type: functional; conditions: time 13 day
[29] = AUCinf in CD-1 mouse at 30 mg/kg, po; type: ADME, organism-based; design: dose 30 mg/kg, route po; conditions: in vivo
KB = experiment: Reversal of vinorelbine resistance in human KB cells assessed as reduction in cell viability incubated for 72 hrs in presence of vinorelbine (reference value: 7.4+/-2.2 nM); type: functional, cell-based
K562/Adr = experiment: Reversal of vinorelbine resistance in human K562/Adr cells assessed as reduction in cell viability incubated for 72 hrs in presence of vinorelbine (reference value: 7320.6+/-2115.2 nM); type: functional, cell-based
[30] = Half life in CD-1 mouse at 30 mg/kg, po; type: ADME, organism-based; conditions: in vivo
[31] = Toxicity in Balb/cA nude mouse xenografted with human KBv200 cells assessed as mortality at 50 mg/kg, ip qd administered for 13 days; type: organism-based; conditions: in vivo, 312 h, time 13 day
[32] = Cytotoxicity against human L02 cells assessed as reduction in cell viability incubated for 48 hrs by CCK-8 assay; type: toxicity, cell-based
[33] = Half life in CD-1 mouse at 25 mg/kg, ip; type: ADME, organism-based; conditions: in vivo
[34] = Bioavailability in CD-1 mouse at 25 mg/kg, ip; type: ADME, organism-based; conditions: in vivo
[35] = target: ATP-dependent translocase ABCB1 (Homo sapiens, UniProt P08183); experiment: Inhibition of P-gp in human KBv200 cells assessed as induction of conformation change by measuring increase in UIC-2 binding level at 50 uM incubated for 10 mins by UIC-2 reactivity shift assay; type: cell-based; conditions: kbv200, 10 min
KBv200 [36] = experiment: Antitumor activity against human KBv200 cells xenografted in Balb/cA nude mouse assessed as T/C ratio at 50 mg/kg, ip qd administered for 13 days in presence of vinorelbine; type: functional; conditions: time 13 day
[37] = Toxicity in Balb/cA nude mouse xenografted with human KBv200 cells assessed as mortality at 50 mg/kg, ip qd administered for 13 days in presence of vinorelbine; type: organism-based; conditions: in vivo, 312 h, time 13 day
KBv200 [38] = experiment: Antitumor activity against human KBv200 cells xenografted in Balb/cA nude mouse assessed as mean tumor volume at 50 mg/kg, ip qd administered for 13 days in presence of vinorelbine; type: functional; conditions: time 13 day
KBv200 [39] = experiment: Reversal of adriamycin resistance in human KBv200 cells assessed as reduction in cell viability incubated for 72 hrs in presence of adriamycin (reference value: 1291.2+/-308.9 nM); type: functional, cell-based; conditions: KBv200, 72 h
[40] = AUCinf in CD-1 mouse at 3 mg/kg, iv; type: ADME, organism-based; design: dose 3 mg/kg, route iv; conditions: in vivo
[41] = Toxicity in Balb/cA nude mouse xenografted with human KBv200 cells assessed as changes in body weight at 50 mg/kg, ip qd administered for 13 days in presence of vinorelbine; type: organism-based; conditions: in vivo, 312 h, time 13 day
KBv200 [42] = experiment: Antitumor activity against human KBv200 cells xenografted in Balb/cA nude mouse assessed as mean tumor volume at 25 mg/kg, ip administered as single dose and measured on day 0 in presence of vinorelbine; type: functional

Chain of ATP-dependent translocase ABCB1 (P08183 whole entry): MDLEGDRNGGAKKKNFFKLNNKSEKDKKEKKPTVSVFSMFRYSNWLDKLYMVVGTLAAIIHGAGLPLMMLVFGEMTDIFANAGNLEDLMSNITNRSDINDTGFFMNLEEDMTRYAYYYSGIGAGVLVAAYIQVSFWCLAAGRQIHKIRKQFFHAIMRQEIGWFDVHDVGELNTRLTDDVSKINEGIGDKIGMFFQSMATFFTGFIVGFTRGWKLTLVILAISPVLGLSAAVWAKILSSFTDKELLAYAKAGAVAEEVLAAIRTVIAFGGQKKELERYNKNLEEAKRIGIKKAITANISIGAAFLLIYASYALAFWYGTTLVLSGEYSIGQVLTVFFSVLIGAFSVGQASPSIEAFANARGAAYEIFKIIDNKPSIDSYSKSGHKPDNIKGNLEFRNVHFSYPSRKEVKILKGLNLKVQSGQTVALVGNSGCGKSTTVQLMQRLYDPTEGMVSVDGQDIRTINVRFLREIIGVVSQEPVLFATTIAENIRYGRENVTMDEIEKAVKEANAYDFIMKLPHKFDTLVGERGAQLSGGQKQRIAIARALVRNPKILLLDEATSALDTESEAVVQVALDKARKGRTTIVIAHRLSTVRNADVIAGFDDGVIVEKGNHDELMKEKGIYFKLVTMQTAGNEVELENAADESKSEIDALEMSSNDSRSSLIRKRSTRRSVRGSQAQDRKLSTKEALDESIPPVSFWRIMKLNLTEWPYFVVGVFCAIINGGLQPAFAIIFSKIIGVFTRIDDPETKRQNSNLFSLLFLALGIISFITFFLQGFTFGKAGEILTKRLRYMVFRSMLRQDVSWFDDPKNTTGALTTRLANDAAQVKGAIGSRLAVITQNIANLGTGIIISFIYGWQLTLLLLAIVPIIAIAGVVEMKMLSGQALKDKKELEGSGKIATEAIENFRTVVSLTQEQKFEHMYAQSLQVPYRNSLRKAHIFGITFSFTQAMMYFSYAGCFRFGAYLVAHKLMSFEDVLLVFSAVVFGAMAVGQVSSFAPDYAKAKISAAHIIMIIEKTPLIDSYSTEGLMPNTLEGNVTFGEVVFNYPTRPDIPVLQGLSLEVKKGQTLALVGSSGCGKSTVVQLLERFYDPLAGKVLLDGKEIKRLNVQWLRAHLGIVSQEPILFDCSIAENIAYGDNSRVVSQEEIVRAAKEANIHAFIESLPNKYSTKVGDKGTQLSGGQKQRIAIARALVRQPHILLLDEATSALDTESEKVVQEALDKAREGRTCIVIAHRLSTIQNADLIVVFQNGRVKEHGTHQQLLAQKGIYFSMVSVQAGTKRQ

With `O=C1CCCCCCCCCCCNC(=O)[C@@H](Cc2ccccc2)NC(=O)/C(c2cccc3ccccc23)=C\C=C(\c2ccccc2)CN1` the IC50 (KBv200 [1]) was 0.02 nM, the IC50 (KBv200 [2]) was 0.9 nM and the Activity [3] was “Non-Toxic”. The IC50 (OVCAR-8) was 4.6 nM, the Activity [4] was “Non-Toxic” and the half-life [5] was 2.08 h. For the same compound, the Activity [6] was “Non-Toxic”, the Tmax [7] was 2.67 h and the AUC(0-t) [8] was 17000 ng·h/mL. For the same compound, the AUC(0-t) [9] was 9470 ng·h/mL, the inhibition in vivo at 50 mg/kg (KBv200 [10]) was 52% and the Activity (KBv200 [11]) was “inactive”. The Activity (KBv200 [12]) was 121.6 mm3, the inhibition in vivo at 50 mg/kg (KBv200 [13]) was 19% and the IC50 (NCI/ADR-RES) was 116 nM. For the same compound, the IC50 at 48 h [14] was > 100000 nM, the bioavailability [15] was 21.9% and the AUC(0-inf) [16] was 20600 ng·h/mL. The Cmax [17] was 1930 ng/mL, the Activity (KBv200 [18]) was 1384 mm3 and the Activity (KBv200 [19]) was 119.8 mm3. The Activity (KBv200 [20]) was 1703.9 mm3, the “Ratio IC50” value (KBv200 [21]) was 432 and the IC50 (K562) was 0.8 nM. For the same compound, the clearance [22] was 11.9 mL/min/kg, the inhibition in vivo at 25 mg/kg (KBv200 [23]) was 35% and the Cmax [24] was 2670 ng/mL. For the same compound, the AUC(0-t) [25] was 4320 ng·h/mL, the T/C (KBv200 [26]) was 65% and the Tmax [27] was 3 h. For the same compound, the T/C (KBv200 [28]) was 113%, the AUC(0-inf) [29] was 9490 ng·h/mL and the IC50 (KB) was 0.7 nM. For the same compound, the IC50 (K562/Adr) was 75.9 nM, the half-life [30] was 2.56 h and the Activity [31] was “Non-Toxic”. The IC50 at 48 h [32] was > 100000 nM, the half-life [33] was 11.9 h and the bioavailability [34] was 47.3%. For the same compound, the Activity [35] was “Active”, the T/C (KBv200 [36]) was 48% and the Activity [37] was “Non-Toxic”. The Activity (KBv200 [38]) was 1059.5 mm3, the IC50 (KBv200 [39]) was 37.5 nM and the AUC(0-inf) [40] was 4350 ng·h/mL. The Activity [41] was “Non-Toxic” and the Activity (KBv200 [42]) was 122 mm3.

— ChEMBL document CHEMBL5380791, “Modular Biomimetic Strategy Enabled Discovery of Simplified Pseudo-Natural Macrocyclic P-Glycoprotein Inhibitors Capable of Overcoming Multidrug Resistance” (J Med Chem, 2023)
